Values after ≈ are worked out from the molar mass of the structure shown.
Tests used:
[1] = ChromLogD chromatographic lipophilicity; format: physicochemical; settings: C18 column, pH 7.4
Experimental: The chromatographic method was based on the differential retention times of test compounds on a C18 column (Luna C18(2), 30 x 2mm, […], 100 Å) under controlled liquid chromatography conditions, comparing retention times with those of standards (Benzyl Alcohol, p-Nitrophenol, Bromobenzene, Anthracene) with known log D values. Stock solutions (10 mM in DMSO) of test compounds were diluted to a final concentration of 1 mM. The mobile phases consisted of A (20mM Ammonium Acetate buffered to pH 7.4 with ammonia hydroxide) and B (ACN). The LC gradient profile was the following: a linear increase to 90% B during 0.0 to 1.3 min, hold at 90 % B during 1.3 to 1.53 min then back to 0.0% B from 1.53 to 1.60 min, hold at 0% B until the end of the run (2.00 min). 1 μL of the sample volume was injected, using a flow rate of 0.5 mL/min and a column temperature of 40°C. All compounds were detected by UPLC/MS analysis using a a Waters ACQUITY UPLC equipped with a Photo Diode Array (PDA) detector coupled with a Waters ACQUITY QDa single quadrupole mass spectrometer with an Electrospray ionization (ESI) source.
The retention times were obtained by processing data in Waters Openlynx. The standards are then plotted in excel and the best fit line was used as the basis for calculating the unknown LogD values from the retention times of the peaks obtained.

[2] = BRlogD chromatographic lipophilicity; format: physicochemical; settings: XBridge Shield RP18, pH 7.0, 60% acetonitrile
Experimental: The original method was described in a previous paper.e Briefly, a HPLC Thermo Fisher Scientific Dionex Ultimate 3000 instrument equipped with a Low-Pressure Mixing Gradient Pump LPG-3400 SD, ACC-3000 autosampler with termostatable column compartment, a DAD-3000 RS Detector and Chromeleon Data System Version 7.2.10 was used. Deionized water and HPLC grade acetonitrile were used throughout. The mobile phases consisted of 20 mM ammonium acetate at pH 7.0 and acetonitrile 60% v/v. Samples were dissolved in a 1:1 mixture of buffer/acetonitrile in the concentration range of 50–100 ug/mL. A 10uL volume of each solution was injected at 30°C and flow rate was 1 mL/min. The dead time, t0, was determined by monitoring the baseline disturbance.
retention time (tR) was measured on a XBridgeTM Shield RP18 (Waters, 5cm x 4.6 mm, 5 µm particle size, 130Å pore size). Isocratic log k’ (capacity factor k’ = (tR - t0)/t0) values were measured. The relationship between log D and log k’60 has been determined previously and is reported below (Eq.
We termed this log D as BRlogD.

Kinetic solubility = format: physicochemical; settings: for solubility kinetic at 2 h: phosphate buffered saline, PBS pH 7.4, 2% DMSO, 2 h room temperature, assay range 5-200 µM, read-out: KS (kinetic solubility)
Experimental: Using a stock solution of test compound in 100% DMSO, duplicate dilutions were prepared at a nominal concentration of 200 µM in 0.1 M phosphate buffered saline (PBS) at pH 7.4, with a 2% final DMSO content. Test compound calibration standards were prepared at 200 µM and 10 µM in 100%
DMSO. The PBS and DMSO dilutions were equilibrated on a shaking platform at room temperature for two hours prior to filtration using a Multiscreen HTS solubility filter plate (Millipore). Filtrates were analysed by LC-UV-MS and the concentration of compound in PBS filtrate determined by comparing the UV absorbance peak with that of the two DMSO calibration standards. Mass spectrometry will be used to confirm the presence of the expected molecular ion in the UV peak measured. The effective range of the assay is 5 – 200 µM. […]

Pgp = target: T1, Pgp (Homo sapiens, UniProt P08183); test: Pgp substrate assessment from Caco-2 permeability with/without Pgp inhibitor; format: in vitro ADME
T1 construct: host or cells: Caco-2 cells
Experimental: Lucifer Yellow (LY) was added to the apical buffer in all wells to assess viability of the cell layer. As LY cannot freely permeate lipophilic barriers, a high degree of LY transport indicates poor integrity of the cell layer and wells with a LY Papp > 10 x 10-6 cm/s were rejected. Compound recovery from the wells was determined from MS responses (normalised to internal standard) in donor and acceptor chambers at the end of incubation compared to response in the donor chamber pre- […]
which may reduce the reliability of a result.
Caco-2 membrane permeability assay
Caco-2 cells (ECACC) were cultured in DMEM, 10% FBS, 1% NEAA, Hepes buffer 10 mM and in 50 U/mL penicillin and […] streptomycin. For transport studies, 200,000 cells/well were seeded on Millicell 24-well cell culture plates. After 24 hours of incubation at 37 °C and 5% CO2, the medium was changed with Enterocyte Differentiation Medium (Becton Dickinson), which allows Caco-2 cells to establish within three days a differentiated enterocyte monolayer. The permeability of the compounds across the cells’ monolayer was determined by measuring their transport in both directions: apical to basolateral (A → B) and basolateral to apical (B → A). For A → B directional transport, the donor working solution with test article 10 m M) was added to the apical (A) compartment and HBSS (pH 7.4) was added to the basolateral (B). […] The Papp expressed as nm/sec was calculated as follows: Papp (nm/sec) = (Vr/C0) x (1/A) x (Cr(t)/T) x 1000 000. […]
Vr is the volume of the solution in the receiving compartment (mL); C0 is initial test compound concentration in the donor compartment (expressed as area ratio); A is the membrane surface area (cm2); Cr (t) = measured concentration of the receiver well at time T120 (expressed as area ratio) and T is time of incubation (sec). Efflux ratio was also measured to understand if the compounds undergo active efflux: Efflux ratio = Papp [B > A] / Papp [A > B]. […]

T1 sequence (P08183 whole entry): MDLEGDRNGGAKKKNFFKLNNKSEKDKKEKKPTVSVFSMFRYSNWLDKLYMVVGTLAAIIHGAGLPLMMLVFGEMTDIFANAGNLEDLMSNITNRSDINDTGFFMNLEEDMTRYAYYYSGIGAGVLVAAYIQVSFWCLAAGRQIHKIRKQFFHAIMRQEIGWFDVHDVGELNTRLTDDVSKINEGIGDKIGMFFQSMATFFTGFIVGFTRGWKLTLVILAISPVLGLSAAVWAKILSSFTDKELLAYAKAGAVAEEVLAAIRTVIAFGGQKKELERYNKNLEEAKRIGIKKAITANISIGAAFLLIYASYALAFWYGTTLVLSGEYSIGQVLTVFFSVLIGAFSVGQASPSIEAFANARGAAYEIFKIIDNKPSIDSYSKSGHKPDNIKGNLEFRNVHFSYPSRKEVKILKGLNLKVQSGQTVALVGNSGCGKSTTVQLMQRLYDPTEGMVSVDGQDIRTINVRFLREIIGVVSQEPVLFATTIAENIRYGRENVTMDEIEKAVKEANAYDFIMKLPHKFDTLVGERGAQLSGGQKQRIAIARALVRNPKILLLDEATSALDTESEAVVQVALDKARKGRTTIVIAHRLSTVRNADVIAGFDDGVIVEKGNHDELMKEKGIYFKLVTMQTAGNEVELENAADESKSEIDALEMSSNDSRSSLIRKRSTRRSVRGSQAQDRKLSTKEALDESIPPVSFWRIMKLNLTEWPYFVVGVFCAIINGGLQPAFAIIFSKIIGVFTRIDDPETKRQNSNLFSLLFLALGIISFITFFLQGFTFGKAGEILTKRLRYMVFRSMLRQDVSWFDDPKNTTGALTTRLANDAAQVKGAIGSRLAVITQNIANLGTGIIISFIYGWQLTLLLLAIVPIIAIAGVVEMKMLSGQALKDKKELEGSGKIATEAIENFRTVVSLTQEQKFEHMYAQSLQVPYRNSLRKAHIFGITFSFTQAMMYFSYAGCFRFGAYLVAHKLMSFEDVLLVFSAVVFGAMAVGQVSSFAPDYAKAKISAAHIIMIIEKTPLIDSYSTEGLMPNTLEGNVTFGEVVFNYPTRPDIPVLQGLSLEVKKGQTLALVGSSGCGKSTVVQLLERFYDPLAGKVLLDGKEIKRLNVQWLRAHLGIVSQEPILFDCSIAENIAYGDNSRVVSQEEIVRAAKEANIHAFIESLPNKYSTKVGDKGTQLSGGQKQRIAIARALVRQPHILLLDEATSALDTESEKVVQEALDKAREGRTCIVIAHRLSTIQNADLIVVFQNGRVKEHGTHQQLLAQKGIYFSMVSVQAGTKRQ

Question: Which results are given for `Cn1cc2c3nc(ncc31)Nc1cnn(c1)CCCNCCOc1ccc-2cc1` [Compound 5a]?
Answer: chromatographic logD [1]: 1.75; BRlogD [2]: 0.64; kinetic solubility (in words) (Kinetic solubility): less soluble; solubility kinetic at 2 h (Kinetic solubility): 20 ± 3 µM (≈ 7.79 µg/mL)

Question: For `Cn1cc2c3nc(ncc31)Nc1cnn(c1)CCCNC(=O)COc1ccc-2cc1` [Compound 5b], which chromatographic logD [1] is on record?
Answer: 1.52

Question: And the Pgp substrate (Pgp; Caco-2 model)?
Answer: YES

Question: And the BRlogD [2]?
Answer: 0.53

Question: And the “kinetic solubility (in words)” value (Kinetic solubility)?
Answer: less soluble

Question: What about the solubility kinetic at 2 h (Kinetic solubility) of the same compound?
Answer: 16 ± 1 µM (≈ 6.46 µg/mL)

Question: With `c1cc2nc(n1)Nc1cnn(c1)CCCNCCOc1ccc(cc1)N2` [Compound 6a] as the compound, how does the chromatographic logD [1] read?
Answer: 1.15

Question: What about the Pgp substrate (Pgp; Caco-2) of the same compound?
Answer: YES

Question: And the BRlogD [2]?
Answer: -0.29

Question: What about the “kinetic solubility (in words)” value (Kinetic solubility) of the same compound?
Answer: highly soluble

Question: What about the solubility kinetic at 2 h (Kinetic solubility) of the same compound?
Answer: 188 ± 18 µM (≈ 66.1 µg/mL)

Question: For `O=C1COc2ccc(cc2)Nc2ccnc(n2)Nc2cnn(c2)CCCN1` [Compound 6b], which chromatographic logD [1] is on record?
Answer: 1.17

Question: And the Pgp substrate (Pgp; Caco-2 model)?
Answer: YES

Question: And the BRlogD [2]?
Answer: -0.03

Question: And the “kinetic solubility (in words)” value (Kinetic solubility)?
Answer: highly soluble

Question: And the solubility kinetic at 2 h (Kinetic solubility)?
Answer: 198 ± 3 µM (≈ 72.3 µg/mL)

From PMC12067128, “Macrocyclization: Enhancing Drug-like Properties of Discoidin Domain Receptor Kinase Inhibitors” (ACS Medicinal Chemistry Letters, 2025)
